# Patent US6413974B1, “6,9,-disubstituted 2-[trans-(4-aminocyclohexyl) amino] purines” (Aventis Pharmaceuticals Inc., priority 1998, dated 2002)
# Where “and” joins values, the source holds several entries; their conditions need not be identical. Equal values may be shown once. Where a name gives a salt, the structure may show the parent alone. Read-outs that look alike come from different tables or passages of the source.
# What was measured:
# Colo-205 = assay: In vitro tumor cell proliferation, Colo-205; assay type: cell-based, human; conditions: read-out: In vitro Tumor Cell Proliferation (IC50, μM) Colon Colo-205
# In short: (§1)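 SRB read-out: 3-day drug exposure, medium and drug renewed, 4 further days, TCA fixation at 4° C, 0.4% SRB stain. CyQUANT alternative: 3-day drug exposure, then plates frozen at −80° C ≥30 min. Cells plated overnight at 37° C before dosing.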
# DU 145 = assay: In vitro tumor cell proliferation, DU 145; assay type: cell-based, human; conditions: read-out: In vitro Tumor Cell Proliferation (IC50, μM) Prostate DUI45
# In short: as §1
# MDA-MB-435 = assay: In vitro tumor cell proliferation, MDA-MB-435; assay type: cell-based, human; conditions: read-out: In vitro Tumor Cell Proliferation (IC50, μM) Breast MDA-MB-435
# Protocol: The proliferation of tumor cells was measured using a sulforhodamine B assay as described in Skehan, P., et al., J. Natl. Cancer Inst. […] Tumor cells were harvested with trypsin-EDTA, cells that excluded trypan blue were counted, added to 96-well plates and incubated overnight at 37° C. Drug was added to the wells following dilution in culture medium. Three days later, the medium was removed and replenished with medium containing fresh drug and incubated an additional 4 days. The cells were then fixed with 0.1 ml 10% trichloroacetic acid for 60 min at 4° C. The plates were rinsed five times with tap water, air-dried and stained for 30 min with 0.4% sulforhodamine B in 1% acetic acid and air-dried.
# Alternatively, the CyQUANT cell proliferation assay was used to quantify tumor cell proliferation. Tumor cells were harvested with trypsin-EDTA, cells that excluded trypan blue were counted, added to 96-well plates and incubated overnight at 37° C. Drug was added to the wells following dilution in culture medium. Three days later the medium was removed and the plates frozen at −80° C. for at least 30 minutes.
# cdk4/cyclin D1 = molecular target: T1, cdk4/cyclin D1 (Homo sapiens, UniProt P11802); assay: Cyclin-dependent kinase 4 Assay; assay type: biochemical; conditions: cdk4/cyclin D1, GST-Rb substrate, 10 μM ATP, 30 min at 37° C.; read-out: CDK4 Inhibition IC50
# T1 construct: made in house; host or cells: Sf9 insect cells (Bac-to-Bac baculovirus, pFastBac)
# T1 sequence (P11802 whole entry): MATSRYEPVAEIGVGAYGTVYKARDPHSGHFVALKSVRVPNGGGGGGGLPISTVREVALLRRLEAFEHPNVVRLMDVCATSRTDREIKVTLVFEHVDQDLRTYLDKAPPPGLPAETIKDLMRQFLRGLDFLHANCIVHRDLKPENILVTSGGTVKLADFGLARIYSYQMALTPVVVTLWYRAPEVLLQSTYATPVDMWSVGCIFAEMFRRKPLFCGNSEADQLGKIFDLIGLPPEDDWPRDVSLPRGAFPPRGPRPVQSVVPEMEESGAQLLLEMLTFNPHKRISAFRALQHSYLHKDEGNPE
# T1 sequence (P24385 whole entry partner): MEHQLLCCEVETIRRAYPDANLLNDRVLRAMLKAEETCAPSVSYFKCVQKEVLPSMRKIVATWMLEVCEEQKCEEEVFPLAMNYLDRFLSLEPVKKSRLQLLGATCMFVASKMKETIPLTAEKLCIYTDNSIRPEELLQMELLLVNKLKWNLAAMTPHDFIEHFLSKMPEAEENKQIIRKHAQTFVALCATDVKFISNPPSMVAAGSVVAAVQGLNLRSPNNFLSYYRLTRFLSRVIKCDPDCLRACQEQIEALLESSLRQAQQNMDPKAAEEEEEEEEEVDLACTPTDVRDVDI
# In short: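 Insect-cell lysate of coexpressed human cdk4/cyclin D1 (0.1 μg) phosphorylated bead-bound GST-Rb (0.5 μg) in 50 mM HEPES pH 7.5, 10 mM MgCl2, 1 mM EGTA for 30 min at 37 °C. Filters were washed with TNEN and scintillation-counted; IC50 values derived.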
# A549 = assay: In vitro tumor cell proliferation, A549; assay type: cell-based, human; conditions: read-out: In vitro Tumor Cell Proliferation (IC50, μM) Lung A549
# In short: as §1
# DMS-114 = assay: In vitro tumor cell proliferation, DMS-114; assay type: cell-based, human; conditions: read-out: In vitro Tumor Cell Proliferation (IC50, μM) Lung DMS-114
# In short: as §1
# HT-29 = assay: In vitro tumor cell proliferation, HT-29; assay type: cell-based, human; conditions: read-out: In vitro Tumor Cell Proliferation (IC50, μM) Colon HT-29 (converted)
# In short: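 HT-29 human colon adenocarcinoma cells plated overnight at 37° C., then exposed to drug for 3 days, medium with fresh drug replaced for a further 4 days. Cells fixed with 10% TCA and stained with 0.4% sulforhodamine B; alternatively, CyQUANT read after 3 days of drug exposure.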
# PC-3 = assay: In vitro tumor cell proliferation, PC-3; assay type: cell-based, human; conditions: read-out: In vitro Tumor Cell Proliferation (IC50, μM) Prostate PC-3
# In short: as §1
# MDA-MB-231 = assay: In vitro tumor cell proliferation, MDA-MB-231; assay type: cell-based, human; conditions: read-out: In vitro Tumor Cell Proliferation (IC50, μM) Breast MDA-MB-231
# In short: as §1
# cdk2/cyclin E = molecular target: T2, cdk2/cyclin E (Homo sapiens, UniProt P24941); assay: Cyclin-Dependent Kinase 2 Assay (cdk-2 inhibition); assay type: biochemical; conditions: GST-Rb substrate, 30 min at 30° C.
# T2 construct: made in house; host or cells: insect cells (baculovirus co-infection)
# In short: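 GST-Rb bound to glutathione-Sepharose beads (0.5 μg/well) as substrate in 50 mM HEPES pH 7.5, 10 mM MgCl2, 1 mM EGTA. Recombinant cdk2/cyclin E at 0.1 μg per 100 μl, 30 min at 30 °C. Reaction stopped by filtration, TNEN washes, scintillation counting.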
# [1] = Homo sapiens, COLO 205, values marked * (mark not explained)
# [2] = values marked * (mark not explained), dihydrochloride
# [3] = Homo sapiens, DU-145, values marked * (mark not explained)
# [4] = Homo sapiens, MDA-MB-435, values marked * (mark not explained)
# [5] = Homo sapiens, A549, values marked * (mark not explained)
# [6] = Homo sapiens, DMS-114, values marked * (mark not explained)
# [7] = Homo sapiens, HT-29, values marked * (mark not explained)
# [8] = Homo sapiens, PC-3, values marked * (mark not explained)
# [9] = Homo sapiens, MDA-MB-231, values marked * (mark not explained)
SMILES,IC50 (Colo-205; [1]) [µM],IC50 (Colo-205; [2]) [µM],IC50 (DU 145; [3]) [µM],IC50 (DU 145; [2]) [µM],IC50 (MDA-MB-435; [4]) [µM],IC50 (cdk4/cyclin D1),IC50 (A549; [5]) [µM],IC50 (A549; [2]) [µM],IC50 (DMS-114; [6]) [µM],IC50 (DMS-114; [2]) [µM],IC50 (HT-29; [7]) [µM],IC50 (HT-29; [2]) [µM],IC50 (PC-3; [8]) [µM],IC50 (PC-3; [2]) [µM],IC50 (MDA-MB-231; [9]) [µM],IC50 (MDA-MB-231; [2]) [µM],IC50 (cdk2/cyclin E),IC50 (MDA-MB-435; [2]) [µM]
"N[C@H]1CC[C@H](Nc2nc(NCCCCCO)c3ncn(C4CCCC4)c3n2)CC1 [Example 25, 2-[Trans-(4-aminocyclohexyl)amino]-6-[5-(hydroxy)pentylamino]-9-cyclopentylpurine dihydrochloride]",2.4,2.3,3.9,4.6,6,110 nM,6.1,5.5,6.6,4.5,5.6,6.2,1.8,2.3,3.4,5.4,21 nM,
"CCCCCCNc1nc(N[C@H]2CC[C@H](N)CC2)nc2c1ncn2C1CCCC1 [Example 41, 2-[Trans-(4-aminocyclohexyl)amino]-6-(hexylamino)-9-cyclopentylpurine dihydrochloride]",1.7,,1.1,,2.6,820 nM and 1900 nM,1.1,,0.9,,1.6,,1.5,,1.7,,200 nM,
"CCCNc1nc(N[C@H]2CC[C@H](N)CC2)nc2c1ncn2C1CCCC1 [Example 44, 2-[Trans-(4-aminocyclohexyl)amino]-6-(propylamino)-9-cyclopentylpurine dihydrochloride]",0.58,0.4,0.5,0.6,0.85,250 nM and 370 nM and 160 nM,0.63,0.47,0.44,0.53,0.69,0.65,0.52,0.47,0.8,0.6,9 nM and 11 nM,
"N[C@H]1CC[C@H](Nc2nc(NCCCCc3ccccc3)c3ncn(C4CCCC4)c3n2)CC1 [Example 21, 2-[Trans-(4-aminocyclohexyl)amino]-6-(4-phenylbutylamino)-9-cyclopentylpurine dihydrochloride]",0.51,0.78,0.4,0.7,1.3,1000 nM,0.5,,0.7,0.6,0.7,0.8,0.6,0.8,0.8,0.9,39 nM and 91 nM,1.2
"N[C@H]1CC[C@H](Nc2nc(NCCCO)c3ncn(C4CCCC4)c3n2)CC1 [Example 53, 2-[Trans-(4-aminocyclohexyl)amino]-6-[(3-hydroxypropyl)amino]-9-cyclopentylpurine dihydrochloride]",5.1,5,7.5,11,12,290 nM and 94 nM and 75 nM,12,9.3,16,17,,,3.4,5.9,6.7,8.5,13 nM and 26 nM,11
"CCCCNc1nc(N[C@H]2CC[C@H](N)CC2)nc2c1ncn2C(C)C [Example 37, 2-[Trans-(4-aminocyclohexyl)amino]-6-[(butyl)amino]-9-(2-propyl)purine dihydrochloride]",,11,> 20,10,19,7000 nM,,8.3,9.7,8,19,,11,,24,,240 nM,16
"NCCCCNc1nc(N[C@H]2CC[C@H](N)CC2)nc2c1ncn2C1CCCC1 [Example 5, 2-[Trans-(4-aminocyclohexyl)amino]-6-[(4-aminobutyl)amino]-9-cyclopentylpurine dihydrochloride]",2.4,1.6,2.4,2.8,5.7,290 nM and 380 nM,1.6,1.1,3.1,2.8,,,5.7,7.2,2.9,3.2,42 nM,4.4
"NCCCCCCCCNc1nc(N[C@H]2CC[C@H](N)CC2)nc2c1ncn2C1CCCC1 [Example 56, 2-[Trans-(4-amninocyclohexyl)amino]-6-[(8-aminooctyl)amino]-9-cyclopentylpurine dihydrochloride]",3.5,6.3,4.9,3.6,3.8,860 nM,2.8,2.5,,,2.5,3.4,2.7,4.4,2.2,3.5,115 nM,3.1
